Experimental data: US10457687B2, “Aminoacid derivatives, a process for their preparation and pharmaceutical compositions containing them” (LES LABORATOIRES SERVIER, priority 2015, dated 2019)

Tests used:
Mcl-1 protein = Mcl-1 protein (Homo sapiens, UniProt Q07820); test: Inhibition of Mcl-1 by the fluorescence polarisation technique (Method 1 or Method 2); assay type: binding; conditions: for IC50: fluorescence polarisation, Fluorescein labelled ligand, Method 1 (not underlined) or Method 2 (underlined), read-out: IC50 (μM) Mcl-1 FP
Chain of Mcl-1 protein (Q07820 whole entry): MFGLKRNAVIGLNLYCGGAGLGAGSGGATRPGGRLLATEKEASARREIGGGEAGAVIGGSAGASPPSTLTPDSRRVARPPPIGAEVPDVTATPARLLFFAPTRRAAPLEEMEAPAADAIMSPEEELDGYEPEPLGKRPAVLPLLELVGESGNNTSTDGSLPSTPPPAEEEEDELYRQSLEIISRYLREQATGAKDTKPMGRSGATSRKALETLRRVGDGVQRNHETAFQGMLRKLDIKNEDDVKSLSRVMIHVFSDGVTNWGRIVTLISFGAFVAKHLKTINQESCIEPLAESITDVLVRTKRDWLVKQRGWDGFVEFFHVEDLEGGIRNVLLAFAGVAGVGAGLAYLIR
How it was run: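 Fluorescence polarisation competition of 11-point compound dilutions (5% DMSO final) against fluorescein-labelled ligand for Mcl-1. Method 1: 1 nM ligand, 5 nM protein in 10 mM HEPES, 150 mM NaCl, 0.05% Tween 20, pH 7.4; Method 2: 10 nM ligand, 10 nM protein in 20 mM Na2HPO4, 1 mM EDTA, 50 mM NaCl, pH 7.4.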

[1] = system: H929 multiple myeloma tumour line; test: In vitro cytotoxicity, MTT assay, 48 hours; assay type: cell-based; conditions: H929 cells, 48 hours exposure, cell viability
Method: The cytotoxicity studies were carried out on the H929 multiple myeloma tumour line.
The cells are distributed onto microplates and exposed to the test compounds for 48 hours.

[2] = partial inhibitors, @ 10 μM test compound

IC50 (Mcl-1 protein) [µM] | SMILES | IC50 ([1]; Homo sapiens, NCI-H929) [nM] | further results
0.025 | CC#Cc1sc2ncnc(NC(Cc3ccccc3OC)C(=O)O)c2c1-c1ccc(OCCN2CCN(C)CC2)c(Cl)c1C [Example 39, N-[(5Sa)-5-{3-chloro-2-methyl-4-[2-(4-methylpiperazin-1-yl)ethoxy]phenyl}-6-(prop-1-yn-1-yl)thieno[2,3-d]pyrimidin-4-yl]-2-methoxy-D-phenylalanine] | 401 | –
0.007 | Cc1c(-c2c(-c3ccc(F)cc3)sc3ncnc(NC(Cc4ccccc4OCc4ccnc(-c5ccccc5F)n4)C(=O)O)c23)ccc(OCCN(C)C)c1Cl [Example 50, N-[(5Sa)-5-{3-chloro-4-[2-(dimethylamino)ethoxy]-2-methylphenyl}-6-(4-fluorophenyl)thieno[2,3-d]pyrimidin-4-yl]-2-{[2-(2-fluorophenyl)pyrimidin-4-yl]methoxy}-D-phenylalanine] | > 150 | –
0.063 | Cc1c(-c2c(-c3ccsc3)sc3ncnc(NC(Cc4ccccn4)C(=O)O)c23)ccc(OCCN2CCN(C)CC2)c1Cl [Example 29, N-[(5Sa)-5-{3-chloro-2-methyl-4-[2-(4-methylpiperazin-1-yl)ethoxy]phenyl}-6-(thiophen-3-yl)thieno[2,3-d]pyrimidin-4-yl]-3-pyridin-2-yl-D-alanine] | 2520 | –
0.006 | CC#Cc1sc2ncnc(NC(Cc3ccccc3OCc3ccnc(CCOC)n3)C(=O)O)c2c1-c1ccc(OCCN2CCN(C)CC2)c(Cl)c1C [Example 41, N-[(5Sa)-5-{3-chloro-2-methyl-4-[2-(4-methylpiperazin-1-yl)ethoxy]phenyl}-6-(prop-1-yn-1-yl)thieno[2,3-d]pyrimidin-4-yl]-2-{[2-(2-methoxyethyl)pyrimidin-4-yl]methoxy}-D-phenylalanine] | 7.38 | –
0.055 | COc1ccccc1-c1nccc(COc2ccccc2C[C@@H](Nc2ncnc3sc(-c4ccc(F)cc4)c(-c4c(C)c(Cl)c(OCCN5CCN(C)CC5)c(Cl)c4C)c23)C(=O)O)n1 [Example 270, N-[5-{3,5-dichloro-2,6-dimethyl-4-[2-(4-methylpiperazin-1-yl)ethoxy]phenyl}-6-(4-fluorophenyl)thieno[2,3-d]pyrimidin-4-yl]-2-{[2-(2-methoxyphenyl)pyrimidin-4-yl]methoxy}-D-phenylalanine] | 522 | –
0.127 | COc1ccccc1CC(Nc1ncnc2sc(-c3ccc(F)cc3)c(-c3ccc(OCCN4CCN(C)CC4)c(Cl)c3C)c12)C(=O)O [Example 1, N-[(5Sa)-5-{3-chloro-2-methyl-4-[2-(4-methylpiperazin-1-yl)ethoxy]phenyl}-6-(4-fluorophenyl)thieno[2,3-d]pyrimidin-4-yl]-2-methoxy-D-phenylalanine] | > 600 | –
0.057 | Cc1c(-c2c(-c3ccc(F)o3)sc3ncnc(NC(Cc4ccccc4OCC(F)(F)F)C(=O)O)c23)ccc(OCCN2CCN(C)CC2)c1Cl [Example 17, N-[(5Sa)-5-{3-chloro-2-methyl-4-[2-(4-methylpiperazin-1-yl)ethoxy]phenyl}-6-(5-fluorofuran-2-yl)thieno[2,3-d]pyrimidin-4-yl]-2-(2,2,2-trifluoroethoxy)-D-phenylalanine] | 294 | –
0.005 | CCOc1nccc(COc2ccccc2CC(Nc2ncnc3sc(-c4ccc(F)cc4)c(-c4ccc(OCCN5CCN(C)CC5)c(Cl)c4C)c23)C(=O)O)n1 [Example 4, N-[(5Sa)-5-{3-chloro-2-methyl-4-[2-(4-methylpiperazin-1-yl)ethoxy]phenyl}-6-(4-fluorophenyl)thieno[2,3-d]pyrimidin-4-yl]-2-[(2-ethoxypyrimidin-4-yl)methoxy]-D-phenylalanine] | 215 | –

More lines, now with the values behind:

SMILES | IC50 (Mcl-1 protein) [µM] | IC50 ([1]; Homo sapiens, NCI-H929) [nM] | further results
COc1ccccc1C[C@@H](Nc1ncnc2sc(-c3ccc(F)o3)c(-c3ccc(OCCN4CCN(C)CC4)c(Cl)c3C)c12)C(=O)O [Example 15, N-[(5Ra)-5-{3-chloro-2-methyl-4-[2-(4-methylpiperazin-1-yl)ethoxy]phenyl}-6-(5-fluorofuran-2-yl)thieno[2,3-d]pyrimidin-4-yl]-2-methoxy-D-phenylalanine] | – | – | percentage fluorescence polarisation inhibition, Mcl-1 FP (Mcl-1 protein; [2]): 40.05% @ 10 μM; IC50 [1]: > 3750 nM
Cc1c(-c2c(-c3ccco3)sc3ncnc(N[C@H](Cc4ccccc4Cl)C(=O)O)c23)ccc(OCCN2CCN(C)CC2)c1Cl (single isomer, unassigned) [Example 10, 2-chloro-N-[5-{3-chloro-2-methyl-4-[2-(4-methylpiperazin-1-yl)ethoxy]phenyl}-6-(furan-2-yl)thieno[2,3-d]pyrimidin-4-yl]-D-phenylalanine] | – | > 3750 | inhibition at 3.3 µM (Mcl-1 protein; partial inhibitors, @ 3.3 μM test compound, read-out: percentage fluorescence polarisation inhibition, Mcl-1 FP): 72.8%
CC#Cc1sc2ncnc(NC(Cc3ccccc3OCc3ccnc(N4CCOCC4)n3)C(=O)O)c2c1-c1ccc(OCCN(C)C)c(Cl)c1C [Example 47, N-[(5Sa)-5-{3-chloro-4-[2-(dimethylamino)ethoxy]-2-methylphenyl}-6-(prop-1-yn-1-yl)thieno[2,3-d]pyrimidin-4-yl]-2-{[2-(morpholin-4-yl)pyrimidin-4-yl]methoxy}-D-phenylalanine] | 0.008 | 83.9 | –
Cc1c(-c2c(-c3ccc(F)o3)sc3ncnc(NC(Cc4ccccc4O)C(=O)O)c23)ccc(OCCN(C)C)c1Cl [Example 28, N-[(5Sa)-5-{3-chloro-4-[2-(dimethylamino)ethoxy]-2-methylphenyl}-6-(5-fluorofuran-2-yl)thieno[2,3-d]pyrimidin-4-yl]-2-hydroxy-D-phenylalanine] | 0.116 | > 1880 | –
CC#Cc1sc2ncnc(NC(Cc3ccccc3OCc3ccnc(OCC(F)(F)F)n3)C(=O)O)c2c1-c1ccc(OCCN(C)C)c(Cl)c1C [Example 48, N-[(5Sa)-5-{3-chloro-4-[2-(dimethylamino)ethoxy]-2-methylphenyl}-6-(prop-1-yn-1-yl)thieno[2,3-d]pyrimidin-4-yl]-2-{[2-(2,2,2-trifluoroethoxy)pyrimidin-4-yl]methoxy}-D-phenylalanine] | 0.007 | 16.1 | –
Cc1c(-c2c(-c3ccc(F)cc3)sc3ncnc(NC(Cc4ccccc4OCc4ccnn4C)C(=O)O)c23)ccc(OCCN2CCN(C)CC2)c1Cl [Example 3, N-[(5Sa)-5-{3-chloro-2-methyl-4-[2-(4-methylpiperazin-1-yl)ethoxy]phenyl}-6-(4-fluorophenyl)thieno[2,3-d]pyrimidin-4-yl]-2-[(1-methyl-1H-pyrazol-5-yl)methoxy]-D-phenylalanine] | 0.114 | 318 | –
Cc1c(-c2c(-c3ccc(F)o3)sc3ncnc(NC(Cc4ccccc4OCc4ccnn4C)C(=O)O)c23)ccc(OCCN2CCN(C)CC2)c1Cl [Example 20, N-[(5Sa)-5-{3-chloro-2-methyl-4-[2-(4-methylpiperazin-1-yl)ethoxy]phenyl}-6-(5-fluorofuran-2-yl)thieno[2,3-d]pyrimidin-4-yl]-2-[(1-methyl-1H-pyrazol-5-yl)methoxy]-D-phenylalanine] | 0.026 | 78.6 | –
Cc1c(-c2c(-c3ccsc3)sc3ncnc(NC(Cc4ccccn4)C(=O)O)c23)ccc(OCCN2CCOCC2)c1Cl [Example 36, N-[(5Sa)-5-{3-chloro-2-methyl-4-[2-(morpholin-4-yl)ethoxy]phenyl}-6-(thiophen-3-yl)thieno[2,3-d]pyrimidin-4-yl]-3-pyridin-2-yl-D-alanine] | 0.086 | > 7500 | –
Cc1c(-c2c(-c3ccsc3)sc3ncnc(N[C@H](CC4CCCCC4)C(=O)O)c23)ccc(OCCN2CCN(C)CC2)c1Cl [Example 31, N-[(5Ra)-5-{3-chloro-2-methyl-4-[2-(4-methylpiperazin-1-yl)ethoxy]phenyl}-6-(thiophen-3-yl)thieno[2,3-d]pyrimidin-4-yl]-3-cyclohexyl-D-alanine] | – | – | percentage fluorescence polarisation inhibition, Mcl-1 FP (Mcl-1 protein; [2]): 16.7% @ 10 μM; IC50 [1]: > 3750 nM
Cc1c(-c2c(-c3ccsc3)sc3ncnc(NC(Cc4ccccc4CN)C(=O)O)c23)ccc(OCCN2CCOCC2)c1Cl [Example 37, 2-(aminomethyl)-N-[(5Ra)-5-{3-chloro-2-methyl-4-[2-(morpholin-4-yl)ethoxy]phenyl}-6-(thiophen-3-yl)thieno[2,3-d]pyrimidin-4-yl]-D-phenylalanine] | – | – | percentage fluorescence polarisation inhibition, Mcl-1 FP (Mcl-1 protein; [2]): 18.7% @ 10 μM; IC50 [1]: > 3750 nM
Cc1c(-c2c(-c3ccc(F)o3)sc3ncnc(NC(Cc4ccccc4OCc4ccnc(OCC(F)(F)F)n4)C(=O)O)c23)ccc(OCCN2CCN(C)CC2)c1Cl [Example 26, N-[(5Sa)-5-{3-chloro-2-methyl-4-[2-(4-methylpiperazin-1-yl)ethoxy]phenyl}-6-(5-fluorofuran-2-yl)thieno[2,3-d]pyrimidin-4-yl]-2-{[2-(2,2,2-trifluoroethoxy)pyrimidin-4-yl]methoxy}-D-phenylalanine] | 0.012 | 6.36 | –
COc1ccccc1C[C@@H](Nc1ncnc2sc(-c3ccc(F)cc3)c(-c3ccc(OCCN4CCN(C)CC4)c(Cl)c3C)c12)C(=O)O [Example 2, N-[(5Ra)-5-{3-chloro-2-methyl-4-[2-(4-methylpiperazin-1-yl)ethoxy]phenyl}-6-(4-fluorophenyl)thieno[2,3-d]pyrimidin-4-yl]-2-methoxy-D-phenylalanine] | – | – | percentage fluorescence polarisation inhibition, Mcl-1 FP (Mcl-1 protein; [2]): 56.9% @ 10 μM; IC50 [1]: > 600 nM
CCc1sc2ncnc(N[C@H](C(=O)O)[C@H](O)c3ccccc3)c2c1-c1cccc(Cl)c1C [Example 124, (βR)—N-[(5Ra)-5-(3-chloro-2-methylphenyl)-6-ethylthieno[2,3-d]pyrimidin-4-yl]-beta-hydroxy-L-phenylalanine] | – | – | percentage fluorescence polarisation inhibition, Mcl-1 FP (Mcl-1 protein; partial inhibitors, @ 50 μM test compound): 75.7% @ 50 μM
